Drawing on patent publication US20170275287A1, “NOVEL N2, N4, N7, 6-TETRASUBSTITUTED PTERIDINE-2,4,7-TRIAMINE AND 2, 4, 6, 7-TETRASUBSTITUTED PTERIDINE COMPOUNDS AND METHODS OF SYNTHESIS AND USE THEREOF” (Janus Biotherapeutics, Inc., priority 2014, published 2017), this text covers IC50 and hERG inhibition for 11 compounds.

One data set concerns the target T1, hERG (Homo sapiens, UniProt Q12809).
T1 construct: host or cells: CHO (Chinese hamster ovary)
The data set is described as follows: hERG patch clamp assay (automated, CHO-hERG cells). The class given is cell-based. The protocol: The hERG inhibition assay uses a high throughput single cell planar patch clamp approach. Chinese hamster ovary cells transfected with the hERG gene (CHO-hERG) are dispensed into the PatchPlate. Amphotericin is used as a perforating agent to gain electrical access to the cells. The hERG tail current is measured prior to the addition of the test compound by perforated patch clamping. Following addition of the test compound at a defined concentration or range of concentrations a second recording of the hERG current is performed. The degree of inhibition (%) is obtained by measuring the tail current amplitude, which is induced by a one second test pulse to −40 mV after a two second pulse to +20 mV, before and after drug incubation (the difference current is normalized to control and multiplied by 100 to obtain the percent of inhibition).
Concentration (log) response curves were fitted to a logistic equation (three parameters assuming complete block of the current at very high test compound concentrations) to generate estimates of the 50% inhibitory concentration (IC50). The concentration-response relationship of each compound is constructed from the percentage reductions of current The data is usually categorized into the following classification bands:
The hERG assay was conducted by Cyprotec Inc. in its Watertown, Mass. laboratories. The concentration range tested was 0.0096-30 μM. No concentration-dependent inhibition was observed, IC50>30 μM.
The hERG inhibition assay uses a high throughput single cell planar patch clamp approach. Chinese hamster ovary cells transfected with the hERG gene (CHO-hERG) are dispensed into the PatchPlate. Amphotericin is used as a perforating agent to gain electrical access to the cells. The hERG tail current is measured prior to the addition of the test compound by perforated patch clamping. Following addition of the test compound, n=4 cells per concentration, final DMSO concentration=0.25%), a second recording of the hERG current is performed.
Post-compound hERG currents are expressed as a percentage of pre-compound hERG currents (% control current) and plotted against concentration for each compound. Where concentration dependent inhibition is observed the Hill equation is used to fit a sigmoidal line to the data and an IC50 (concentration at which 50% inhibition is observed) is determined. The assays were performed according to Haverkamp, W. et al., 2000, Eur Heart J., 21:1216-1231, Kiss, L. et al., 2003, Assay Drug Dev. Technol., 1:127-135 and Schroeder, K. et al., 2003, J. Biomol Screen, 8:50-64.
(Block of hERG is tested as a sign of cardiac risk.)

For a further data set, the target named is T2, TLR9 (Homo sapiens, UniProt Q9NR96).
T2 construct: PBMCs were isolated from unpurified buffy coat from healthy human donors; host or cells: primary human PBMCs
T2 sequence (Q9NR96 26-1032): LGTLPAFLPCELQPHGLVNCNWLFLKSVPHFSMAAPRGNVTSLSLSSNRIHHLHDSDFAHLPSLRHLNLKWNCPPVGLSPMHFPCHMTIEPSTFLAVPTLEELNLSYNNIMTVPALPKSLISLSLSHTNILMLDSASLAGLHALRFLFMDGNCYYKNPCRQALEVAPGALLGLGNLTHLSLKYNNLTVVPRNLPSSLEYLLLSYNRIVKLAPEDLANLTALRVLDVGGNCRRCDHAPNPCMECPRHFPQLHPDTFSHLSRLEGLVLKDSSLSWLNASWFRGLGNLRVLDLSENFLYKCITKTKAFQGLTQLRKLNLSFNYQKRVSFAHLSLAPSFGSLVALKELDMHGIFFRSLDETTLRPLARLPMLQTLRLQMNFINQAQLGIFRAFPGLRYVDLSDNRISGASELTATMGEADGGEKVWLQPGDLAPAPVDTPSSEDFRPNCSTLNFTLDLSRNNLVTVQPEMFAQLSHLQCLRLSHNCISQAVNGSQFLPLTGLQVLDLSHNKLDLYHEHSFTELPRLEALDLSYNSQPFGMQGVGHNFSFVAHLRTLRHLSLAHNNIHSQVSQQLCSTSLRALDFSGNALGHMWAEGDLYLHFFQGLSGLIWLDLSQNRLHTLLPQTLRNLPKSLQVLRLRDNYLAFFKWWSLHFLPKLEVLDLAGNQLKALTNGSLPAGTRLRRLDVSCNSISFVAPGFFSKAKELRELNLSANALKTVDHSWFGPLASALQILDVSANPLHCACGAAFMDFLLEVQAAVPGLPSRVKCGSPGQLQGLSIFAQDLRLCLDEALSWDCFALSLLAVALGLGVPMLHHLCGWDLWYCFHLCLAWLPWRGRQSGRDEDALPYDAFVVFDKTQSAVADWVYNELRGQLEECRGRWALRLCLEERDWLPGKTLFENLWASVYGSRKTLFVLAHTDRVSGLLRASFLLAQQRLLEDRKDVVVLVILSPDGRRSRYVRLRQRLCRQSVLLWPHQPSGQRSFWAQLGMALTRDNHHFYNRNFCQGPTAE
In words: TLR9 antagonist assay in human PBMCs (ODN2395, IFNα ELISA). In kind it is cell-based. To be noted: human PBMC, 0.25 μM ODN2395, IFNα readout. The protocol: PBMCs were isolated from unpurified buffy coat from healthy human donors (Blood Research Components, LLC). For antagonist testing, cells were plated on 96-well U-bottom plates at 3×10^6 cells/ml. Antagonist compounds were added to cells in duplicate wells and titrated from 10 μM in 1:3 serial dilutions (8 antagonist concentrations tested in total). After approximately 30 minutes, cells were stimulated with agonist compound (see table 2 for agonist concentrations). After stimulation, cells were incubated overnight at 37° C. To increase the stability of the ssRNA, 3 μg/ml DOTAP (Roche) was added to ORN1075 agonist solutions. All dilutions were made in RPMI-1640 media (Sigma, cat.# R7388)+5% human male AB sera (Sigma, cat.# H4522)+1× Penicillin/Streptomycin solution (VWR, cat.#82026-730).
TLR activity was measured in PBMCs and neutrophils by ELISA using cytokine readouts specific for the TLR of interest.
IFNα was measured as a readout for TLR7 and TLR9 activity in PBMCs stimulated with either ORN1075, or ODN2395, respectively, using a Human Pan-IFNα ELISA kit (MABTech, cat.#3425-1H-20). PBMC supernatant was diluted 1:3 in PBS+0.05% tween-20+0.1% BSA. Absorbance at 450 nm was recorded using a Molecular Devices SpectraMax340PC plate reader. The IC50 for each antagonist was subsequently calculated following the method described below.
Raw ELISA datasets for each 96-well plate, consisting of absorbance readings at […], were first imported in Microsoft Excel to calculate the average absorbance for each standard or antagonist concentration. The averaged data was then imported into SigmaPlot v.11.0 where a standard curve was calculated and used to extrapolate the relative concentration of TLR readout (TNFα, IFNα, etc.) produced. The dose-response curve of each antagonist was then plotted with SigmaPlot v.11.0 on a Log scale. Concentrations of TLR readout were converted to a percentage relative to the average maximum concentration for that ELISA plate in Microsoft Excel. The IC50 for each antagonist was then determined with the SigmaPlot regression wizard using a 4-parameter Hill equation. Each antagonist was tested in a minimum of 3 independent experiments and IC50 results were compiled and averaged using Microsoft Excel.

Molecules are shown by their SMILES.

T1 sequence (Q12809 whole entry): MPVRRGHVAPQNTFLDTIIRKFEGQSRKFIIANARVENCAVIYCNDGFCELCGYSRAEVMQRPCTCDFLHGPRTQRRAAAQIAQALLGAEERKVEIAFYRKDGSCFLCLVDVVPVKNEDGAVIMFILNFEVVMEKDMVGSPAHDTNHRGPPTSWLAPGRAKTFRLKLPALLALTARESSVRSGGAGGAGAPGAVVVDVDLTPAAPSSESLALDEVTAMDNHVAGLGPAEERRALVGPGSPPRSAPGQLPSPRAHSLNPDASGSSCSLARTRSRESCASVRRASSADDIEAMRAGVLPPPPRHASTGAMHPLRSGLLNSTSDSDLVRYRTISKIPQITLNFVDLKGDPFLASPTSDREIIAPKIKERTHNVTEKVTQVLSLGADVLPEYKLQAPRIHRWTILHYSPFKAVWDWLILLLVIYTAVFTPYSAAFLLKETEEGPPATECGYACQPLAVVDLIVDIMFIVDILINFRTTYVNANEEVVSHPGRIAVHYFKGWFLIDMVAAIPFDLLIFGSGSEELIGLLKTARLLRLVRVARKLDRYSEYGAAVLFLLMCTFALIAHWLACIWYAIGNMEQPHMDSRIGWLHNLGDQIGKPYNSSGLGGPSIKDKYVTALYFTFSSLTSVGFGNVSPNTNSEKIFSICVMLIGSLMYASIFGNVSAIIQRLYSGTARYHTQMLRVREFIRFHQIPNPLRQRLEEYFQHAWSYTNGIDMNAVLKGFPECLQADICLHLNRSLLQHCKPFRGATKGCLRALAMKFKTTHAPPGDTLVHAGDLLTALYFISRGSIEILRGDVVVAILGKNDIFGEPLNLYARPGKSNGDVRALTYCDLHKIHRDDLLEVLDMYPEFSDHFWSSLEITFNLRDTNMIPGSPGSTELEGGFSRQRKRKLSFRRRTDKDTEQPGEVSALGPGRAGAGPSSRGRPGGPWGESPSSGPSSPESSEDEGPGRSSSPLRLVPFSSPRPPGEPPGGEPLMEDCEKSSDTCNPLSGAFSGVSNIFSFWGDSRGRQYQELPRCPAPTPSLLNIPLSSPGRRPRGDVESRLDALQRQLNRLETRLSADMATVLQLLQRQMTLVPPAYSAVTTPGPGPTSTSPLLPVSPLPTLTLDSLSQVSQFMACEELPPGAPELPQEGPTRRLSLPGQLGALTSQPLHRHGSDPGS

As usually defined, the IC50 is the concentration needed to halve the response being measured. Higher therefore signals a need for much substance. `CN1CCN(c2nc(NCCN3CCOCC3)c3ncc(-c4ccccc4)nc3n2)CC1` [JB6059]: the half-maximal inhibitory concentration (IC50) amounted to 5000 nM against hERG (Table 4b); 6200 nM at hERG (hERG patch clamp assay, FIG. 1); 305 nM at TLR9.
Regarding `CCOc1nc2c(NCCN3CCOCC3)nc(NCc3ccccc3)nc2nc1NCCN1CCOCC1` [JB6180], the concentration for half-maximal inhibition (IC50) against hERG (Table 4b) was determined as 300 nM; against TLR9, 114 nM.
In the case of `CCOc1nc2c(NCCN3CCCC3)nc(-c3ccccc3)nc2nc1N1CCN(C)CC1` [JB6131], the IC50 is less than 10000 nM against hERG (Table 4b); 8100 nM against hERG (hERG patch clamp assay, FIG. 1); 326 nM against TLR9.
As for `CN1CCN(c2nc3nc(-c4ccccc4)nc(NCCN4CCOCC4)c3nc2OCCN2CCOCC2)CC1` [JB6116], the IC50 at hERG (hERG patch clamp assay, FIG. 1) is 13100 nM; on hERG (human, CHO cells transfected with hERG (CHO-hERG), Table 4b), less than 30000 nM; against TLR9, 297 nM.
Consider `COCCN1CCN(c2nc(NCCN3CCOCC3)c3nc(Cl)c(NCCN4CCOCC4)nc3n2)CC1` [JB6160], for which the IC50 against hERG (Table 4b) was greater than 30000 nM; against TLR9, 60 nM.
For `Clc1nc2c(NCCN3CCOCC3)nc(NCc3ccccc3)nc2nc1NCCN1CCOCC1` [JB6172] the same measures were 1000 nM and 167 nM.
Consider `Clc1nc2c(NCCN3CCOCC3)nc(N3CCOCC3)nc2nc1NCCN1CCOCC1` [JB6147], for which half-maximal inhibition on TLR9 (IC50) was put at 8680 nM.
Turning to `CN1CCN(c2nc(NCCN3CCOCC3)c3nc(Cl)c(NCCN4CCOCC4)nc3n2)CC1` [JB6121, 6-chloro-2-(4-methylpiperazin-1-yl)-N^4,N^7-bis(2-morpholinoethyl)pteridine-4,7-diamine], the 50% inhibitory concentration (IC50) against hERG (Cyprotec, concentration range tested 0.0096-30 μM) was greater than 30000 nM; against hERG (Table 4b) it was greater than 30000 nM; against TLR9, 146 nM. For the same compound, the hERG inhibition result on hERG (up to 30 μM) was “no measurable hERG inhibition”.
Consider `CCCCNc1nc(NCCN2CCOCC2)c2nc(Cl)c(NCCN3CCOCC3)nc2n1` [JB6140], for which the IC50 against hERG (Table 4b) is less than 1000 nM; against TLR9 it was 101 nM.
For `C[C@@H]1CN(CCNc2nc3nc(N4CCN(C)CC4)nc(NCCN4C[C@@H](C)O[C@@H](C)C4)c3nc2Cl)C[C@H](C)O1` [JB6143] the same measures were greater than 30000 nM and 54 nM.
For the compound `CCCCNc1nc(NCCN2CCOCC2)c2nc(SCC)c(NCCN3CCOCC3)nc2n1` [JB6185], the half-maximal inhibitory concentration (IC50) at hERG (Table 4b) is less than 300 nM; against TLR9, 61 nM.
